Data as given in US6057325A, “Hexahydro-pyrido(4,3-b)indole derivatives as antipsychotic drugs” (Janssen Pharmaceutia, N.V., priority 1996, dated 2000).

How the values were obtained:
Type in all cases: in vivo
[1] = system: serotonin 5HT2 -receptors; assay: Combined ATN test in rats: tryptamine (TRY) challenge, central and peripheral serotonin antagonism; conditions: subcutaneous pretreatment, dose protecting 50% of animals; for TRY convulsions ED50: central serotonin antagonistic activity; for TRY hyperaemia ED50: peripheral serotonin antagonistic activity
Description: The central dopamine antagonistic and serotonin antagonistic activity of the subject compounds is evidenced by the experimental data obtained in the combined apomorphine (APO), tryptamine (TRY) and norepinephrine (NOR) test in rats. Said combined apomorphine, tryptamine and norepinephrine test is described in Arch. Int. Pharmacodyn., 227, 238-253 (1977) and provides an empirical evaluation of the relative specificity with which drugs may effect particular neurotransmitter systems centrally (CNS) as well as peripherally. […] Central dopamine antagonism is evaluated by challenging rats, subcutaneously pretreated with different doses of the test compound, with apomorphine which is a dopamine agonist. Next, serotonin antagonism is evaluated by challenging the same rats, subcutaneously pretreated with different doses of the test compound, with tryptamine which is an agonist at serotonin 5HT2 -receptors. Both central and peripheral serotonin antagonism can be assessed in this test. Centrally acting serotonin antagonists are potential antipsychotic drugs, in particular when simultaneously displaying dopamine antagonism in the first part of this test. Finally, α-adrenergic antagonistic activity of the test compounds is evaluated by challenging the same rats, subcutaneously pretreated with different doses of the test compound, with norepinephrine which is an α-adrenergic agonist.
The experimental data are summarized in Table 3 and expressed as ED50 values in mg/kg body weight, which are defined as the dose at which each of the tested compounds protects 50% of the tested animals from a relevant response evoked by the above-mentioned challenging substances. Column APO lists the results of the apomorphine challenge, indicating central dopamine antagonistic activity. Column TRY convulsions and TRY hyperaemia list the results of the tryptamine challenge, indicating central and peripheral serotonin antagonistic activity respectively. Column NOR lists the results of the norepinephrine challenge, indicating α-adrenergicantagonist activity. The favourable pharmacological properties of the compounds of formula (I) lie in their potent central dopamine (column APO) and serotonin (column TRY convulsions) antagonistic activity.

dopamine = assay: Combined ATN test in rats: apomorphine (APO) challenge, central dopamine antagonism; conditions: Rattus norvegicus, sc, subcutaneous pretreatment, dose protecting 50% of animals, central dopamine antagonistic activity
α-adrenergic = assay: Combined ATN test in rats: norepinephrine (NOR) challenge, α-adrenergic antagonist activity; conditions: Rattus norvegicus, sc, subcutaneous pretreatment, dose protecting 50% of animals

SMILES: Cc1nc2sccn2c(=O)c1CCN1CC[C@H]2Nc3ccccc3[C@@H]2C1 (racemic) [Compound 11, (±)-trans-6-[2-(1,3,4,4a,5,9b-hexahydro-2H-pyrido[4,3-b]indol-2-yl)ethyl]-7-methyl-5H-thiazolo[3,2-a]pyrimidin-5-one]
- TRY convulsions ED50 [1]: 0.31 mg/kg
- TRY hyperaemia ED50 [1]: ≤ 0.04 mg/kg
- ED50 (dopamine): 0.31 mg/kg

SMILES: Cc1nc2sccn2c(=O)c1CCN1CC[C@H]2Nc3ccc(F)cc3[C@@H]2C1 (racemic) [Compound 15, (±)-trans-6-[2-(8-fluoro-1,3,4,4a,5,9b-hexahydro-2H-pyrido[4,3-b]indol-2-yl)ethyl]-7-methyl-5H-thiazolo[3,2-a]pyrimidin-5-one]
- TRY convulsions ED50 [1]: 0.31 mg/kg
- TRY hyperaemia ED50 [1]: ≤ 0.0025 mg/kg
- ED50 (dopamine): 0.31 mg/kg
- ED50 (α-adrenergic): > 10 mg/kg

SMILES: Cc1nc2n(c(=O)c1CCN1CC[C@@H]3[C@@H](C1)c1cc(F)ccc1N3c1ccc(F)cc1)CCS2 (racemic) [Compound 23, (±)-trans-6-[2-[8-fluoro-5-(4-fluoro-phenyl)-1,3,4,4a,5,9b-hexahydro-2H-pyrido[4,3-b]indol-2-yl]ethyl]-2,3-dihydro-7-methyl-5H-thiazolo[3,2-a]pyrimidin-5-one]
- TRY convulsions ED50 [1]: 0.08 mg/kg
- TRY hyperaemia ED50 [1]: ≤ 0.01 mg/kg
- ED50 (dopamine): 0.12 mg/kg
- ED50 (α-adrenergic): 0.03 mg/kg

SMILES: Cc1nc2scc(C)n2c(=O)c1CCN1CC[C@H]2Nc3ccccc3[C@@H]2C1 (relative stereo) [Compound 12]
- TRY convulsions ED50 [1]: 1.25 mg/kg
- TRY hyperaemia ED50 [1]: 0.02 mg/kg
- ED50 (dopamine): 1.25 mg/kg
- ED50 (α-adrenergic): > 10 mg/kg

SMILES: Cc1nc2n(c(=O)c1CCN1CC[C@H]3Nc4ccccc4[C@@H]3C1)CCS2 (relative stereo) [Compound 13]
- TRY convulsions ED50 [1]: 5 mg/kg
- TRY hyperaemia ED50 [1]: ≤ 0.04 mg/kg
- ED50 (dopamine): 2.5 mg/kg

SMILES: Cc1nc2ccccn2c(=O)c1CCN1CC[C@H]2Nc3ccccc3[C@@H]2C1 (relative stereo) [Compound 14]
- TRY convulsions ED50 [1]: 1.25 mg/kg
- TRY hyperaemia ED50 [1]: ≤ 0.16 mg/kg
- ED50 (dopamine): 0.31 mg/kg

SMILES: Cc1nc2scc(C)n2c(=O)c1CCN1CC[C@H]2Nc3ccc(F)cc3[C@@H]2C1 (relative stereo) [Compound 16]
- TRY convulsions ED50 [1]: 0.45 mg/kg
- TRY hyperaemia ED50 [1]: 0.015 mg/kg
- ED50 (dopamine): 0.25 mg/kg
- ED50 (α-adrenergic): > 10 mg/kg

SMILES: Cc1nc2ccccn2c(=O)c1CCN1CC[C@H]2Nc3ccc(F)cc3[C@@H]2C1 (relative stereo) [Compound 17]
- TRY convulsions ED50 [1]: 0.5 mg/kg
- TRY hyperaemia ED50 [1]: ≤ 0.04 mg/kg
- ED50 (dopamine): 0.08 mg/kg

SMILES: Cc1nc2n(c(=O)c1CCN1CC[C@H]3Nc4ccc(F)cc4[C@@H]3C1)CCCC2 (relative stereo) [Compound 18]
- TRY convulsions ED50 [1]: 2 mg/kg
- TRY hyperaemia ED50 [1]: 0.02 mg/kg
- ED50 (dopamine): 0.31 mg/kg

SMILES: Cc1nc2sccn2c(=O)c1CCN1CC[C@@H]2[C@@H](C1)c1ccccc1N2C (relative stereo) [Compound 19]
- TRY convulsions ED50 [1]: 1.25 mg/kg
- TRY hyperaemia ED50 [1]: 0.31 mg/kg
- ED50 (dopamine): 8 mg/kg
- ED50 (α-adrenergic): 5 mg/kg

SMILES: Cc1nc2ccccn2c(=O)c1CCN1CC[C@@H]2[C@@H](C1)c1ccccc1N2C (relative stereo) [Compound 20]
- TRY convulsions ED50 [1]: 1.25 mg/kg
- TRY hyperaemia ED50 [1]: ≤ 0.63 mg/kg
- ED50 (dopamine): 1.25 mg/kg
- ED50 (α-adrenergic): 5 mg/kg

SMILES: Cc1nc2sccn2c(=O)c1CCN1CC[C@H]2[C@H](C1)c1cc(F)ccc1N2c1ccc(F)cc1 (relative stereo) [Compound 22]
- TRY convulsions ED50 [1]: 1.25 mg/kg
- TRY hyperaemia ED50 [1]: 0.08 mg/kg
- ED50 (dopamine): 1.25 mg/kg
- ED50 (α-adrenergic): 0.5 mg/kg

SMILES: Cc1nc2scc(C)n2c(=O)c1CCN1CC[C@@H]2[C@@H](C1)c1cc(F)ccc1N2c1ccc(F)cc1 (relative stereo) [Compound 24]
- TRY convulsions ED50 [1]: 1.25 mg/kg
- TRY hyperaemia ED50 [1]: ≤ 0.04 mg/kg
- ED50 (dopamine): 5 mg/kg

SMILES: Cc1nc2n(c(=O)c1CCN1CC[C@@H]3[C@@H](C1)c1cc(F)ccc1N3c1ccc(F)cc1)CCCC2 (relative stereo) [Compound 25]
- TRY convulsions ED50 [1]: 0.12 mg/kg
- TRY hyperaemia ED50 [1]: 0.02 mg/kg
- ED50 (dopamine): 0.31 mg/kg

SMILES: Cc1nc2sccn2c(=O)c1CCN1CC[C@H]2Nc3ccc(Cl)cc3[C@@H]2C1 (relative stereo) [Compound 26]
- TRY convulsions ED50 [1]: 0.02 mg/kg
- TRY hyperaemia ED50 [1]: 0.005 mg/kg
- ED50 (dopamine): 0.03 mg/kg

SMILES: Cc1nc2scc(C)n2c(=O)c1CCN1CC[C@H]2Nc3ccc(Cl)cc3[C@@H]2C1 (relative stereo) [Compound 27]
- TRY convulsions ED50 [1]: 0.31 mg/kg
- TRY hyperaemia ED50 [1]: 0.005 mg/kg
- ED50 (dopamine): 0.31 mg/kg

SMILES: Cc1nc2ccccn2c(=O)c1CCN1CC[C@H]2Nc3ccc(Cl)cc3[C@@H]2C1 (relative stereo) [Compound 28]
- TRY convulsions ED50 [1]: 0.12 mg/kg
- TRY hyperaemia ED50 [1]: 0.005 mg/kg
- ED50 (dopamine): 0.08 mg/kg
- ED50 (α-adrenergic): > 10 mg/kg

SMILES: COc1ccc2c(c1)[C@@H]1CN(CCc3c(C)nc4sccn4c3=O)CC[C@H]1N2 (relative stereo) [Compound 29]
- TRY convulsions ED50 [1]: 5 mg/kg
- TRY hyperaemia ED50 [1]: 0.02 mg/kg
- ED50 (dopamine): 5 mg/kg

SMILES: COc1ccc2c(c1)[C@@H]1CN(CCc3c(C)nc4ccccn4c3=O)CC[C@H]1N2 (relative stereo) [Compound 30]
- TRY convulsions ED50 [1]: 2 mg/kg
- TRY hyperaemia ED50 [1]: ≤ 0.16 mg/kg
- ED50 (dopamine): ≥ 10 mg/kg

SMILES: Cc1nc(NCc2ccccc2)n(C)c(=O)c1CCN1CC[C@H]2Nc3ccc(F)cc3[C@@H]2C1 (relative stereo) [Compound 31]
- TRY convulsions ED50 [1]: ≥ 10 mg/kg
- TRY hyperaemia ED50 [1]: ≤ 0.16 mg/kg
- ED50 (dopamine): 1.25 mg/kg
- ED50 (α-adrenergic): > 10 mg/kg
